We go through two compounds from PubChem BioAssay (NCI).

The assay has as its system P388 leukemia. Description: NCI tumour cell line growth inhibition, 48 h.

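Exposure lasted 48 hours, with cells grown in 96-well plates and compounds tested at five concentrations. TGI marks complete inhibition of growth.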 Some results are limits rather than exact numbers.

In the case of `Nc1ccc2cc(S(=O)(=O)O)cc(O)c2c1N=Nc1ccc(NC(=O)Nc2ccc(N=Nc3c(N)ccc4cc(S(=O)(=O)O)cc(O)c34)c(S(=O)(=O)O)c2)cc1S(=O)(=O)O`, the TGI was greater than 100 µM.

Compound `O=C1ON(Cc2ccccc2)C(c2ccccc2)N1c1ccccc1` (configuration not stated) yielded a TGI greater than 100 µM.
